In patent US11897868B2, “Heterocyclic inhibitors of PCSK9” (CARDIO THERAPEUTICS PTY LTD, priority 2017, dated 2024):

Experiments:
[1] = target: T1, PCSK9 and the LDL receptor (Homo sapiens, UniProt Q8NBP7); assay: CircuLex PCSK9-LDLR in vitro binding assay; conditions: His-tagged PCSK9 wild type, 8 point concentration curves, absorbance 450 nm and 540 nm; for IC50: read-out: Inhibition of PCSK9-LDLR binding; for Inhibition of PCSK9-LDLR binding: IC50 curves
T1 construct: purchased CircuLex CY-8150
T1 sequence (Q8NBP7 153-692): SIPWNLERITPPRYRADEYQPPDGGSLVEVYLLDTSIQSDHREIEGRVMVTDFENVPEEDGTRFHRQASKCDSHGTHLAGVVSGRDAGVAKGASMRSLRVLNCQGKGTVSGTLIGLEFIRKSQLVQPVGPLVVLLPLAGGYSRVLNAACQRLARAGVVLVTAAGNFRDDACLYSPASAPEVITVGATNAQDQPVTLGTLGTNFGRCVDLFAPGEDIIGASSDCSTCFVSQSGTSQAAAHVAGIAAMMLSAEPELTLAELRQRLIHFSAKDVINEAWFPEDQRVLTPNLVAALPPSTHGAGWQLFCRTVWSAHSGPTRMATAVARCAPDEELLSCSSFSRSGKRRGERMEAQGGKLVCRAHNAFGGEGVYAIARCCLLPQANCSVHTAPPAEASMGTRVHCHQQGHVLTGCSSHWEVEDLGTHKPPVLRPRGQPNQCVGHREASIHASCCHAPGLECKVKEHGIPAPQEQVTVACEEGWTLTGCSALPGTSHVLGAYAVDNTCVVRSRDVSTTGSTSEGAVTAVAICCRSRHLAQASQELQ
T1 sequence (Q8NBP7 31-152 partner limits assumed): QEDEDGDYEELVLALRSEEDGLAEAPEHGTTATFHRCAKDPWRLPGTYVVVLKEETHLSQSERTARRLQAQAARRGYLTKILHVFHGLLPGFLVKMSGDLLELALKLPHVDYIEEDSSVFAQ
Description: Compounds were assayed for their ability to inhibit the binding between PCSK9 and the LDL receptor using a CircuLex PCSK9-LDLR in vitro binding assay kit (Catalog #CY-8150. The procedure employed the reagents and buffers included in the kit as follows.
88 μL of 1× reaction buffer were placed into each well. 5 μL of test compounds in 20% DMSO were added into each well. 10 mM solutions of test compounds in DMSO were diluted by 3-fold series to give 8 point concentration curves. The compounds were then diluted 20-fold with the reaction buffer. To each well was then added 7 μL of His-tagged PCSK9 wild type solution (1000 ng/mL) into each well. The plate was then covered with a plate sealer and incubated at room temperature for 3 hours, shaking at 300 rpm on an orbital microplate shaker. The test solutions were washed 4 times with 350 μL wash buffer. 100 μL of biotinylated anti-His-tag monoclonal antibody was added to each well. The plate was covered with a plate sealer, and incubated at room temperature for 1 hour, shaking at 300 rpm. The test solutions were washed 4 times with 350 μL wash buffer. 100 μL of HRP-conjugated streptavidin was added to each well. The plate was covered with a plate sealer, and incubated at room temperature for 20 min, shaking at 300 rpm.
The test solutions were washed 4 times with 350 μL wash buffer. 100 μL of substrate reagent were added into each well. The plate was covered with a plate sealer, and incubated at room temperature for 15 min, shaking at 300 rpm. Finally, 100 μL of the stop solution was added to each well in the same order as the previously added substrate reagent. Absorbance was measured at 450 nm and 540 nm and IC50 curves were plotted.

PCSK9-D374Y = target: T2, PCSK9-D374Y (Homo sapiens, UniProt Q8NBP7, D374Y); assay: LDL uptake in HepG2 cells treated with PCSK9-D374Y (cell-based assay); conditions: HepG2 cells with PCSK9-D374Y (2 μg/ml), 16 hours, Bodipy FL LDL 4 hours, FIG. 3
T2 construct: host or cells: HepG2 cells (the protein is added from outside; LDLR is endogenous)
T2 sequence (Q8NBP7 153-692 D374Y): as the sequence (Q8NBP7 153-692) above, with D222Y counted along it
T2 sequence (Q8NBP7 31-152 partner limits assumed): as the sequence (Q8NBP7 31-152 partner limits assumed) above
Description: Human liver cells (hepG2) express the LDL receptor, which can take up fluorescent-labeled LDL into the cell. PCSK9 binds to LDL receptor, wherein the complex is internalized and degraded in the lysosome, resulting in lowered LDL uptake in hepG2 cells. Inhibition of PCSK9 […] lowers plasma (circulating) LDL-C by increasing LDL incorporation into the cell.
The cell-based assay was conducted as follows, according to the procedure outlined in Xu and Liu, J Bioequiv Availab 2013, 5, 7. […] Human liver HepG2 cells were seeded in a 96 well plate at 2×10^5 cells/ml and incubated overnight. PCSK9-D374Y (2 μg/ml) was added, along with test compounds. The wells were incubated for 16 hours, whereupon the medium was replaced with fresh medium containing 10 μg/ml Bodipy FL LDL, and the wells were incubated for a further 4 hours. The wells were washed using warm PBS and then the LDL uptake was quantified on a fluorescent plate reader at excitation/emission wavelengths of 485 and 530 nm respectively.
FIG. 2 indicates the decrease in LDL update in HepG2 cells comparing untreated and PCSK9-D374Y gain-of-function treated cells. Test compounds were measured at their ability to increase LDL uptake at concentrations of 0.1 and 1 μM and the results shown in FIG. 3.

Row | IC50 [1] [nM] | SMILES | increase of LDL uptake (PCSK9-D374Y; 0.1 μM compound) | increase of LDL uptake (PCSK9-D374Y; 1 μM compound) | Inhibition of PCSK9-LDLR binding [1]
1 | < 100 | Cc1cn(-c2cc(NC(=O)c3ccc(C)c(Oc4cccc5ccncc45)c3)cc(N3CCN(C)CC3)c2)cn1 [Example 27, 3-(isoquinolin-8-yloxy)-4-methyl-N-(3-(4-methyl-1H-imidazol-1-yl)-5-(4-methylpiperazin-1-yl)phenyl)benzamide] | Significant increases in LDL uptake equivalent to untreated cells | Significant increases in LDL uptake equivalent to untreated cells | 
2 | 100 to 1000 | Cc1cn(-c2cc(CN3CCC[C@H](N)C3)cc(NC(=O)c3ccc(C)c(Oc4ccccc4)c3)c2)cn1 [Example 30, (S)—N-(3-((3-aminopiperidin-1-yl)methyl)-5-(4-methyl-1H-imidazol-1-yl)phenyl)-4-methyl-3-phenoxybenzamide] | Significant increases in LDL uptake equivalent to untreated cells | Significant increases in LDL uptake equivalent to untreated cells | 
3 |  | Cc1cn(-c2cc(NC(=O)c3ccc(C)c(Oc4ccccc4)c3)cc(N3CCN(C)CC3)c2)cn1 [Example 25, 4-methyl-N-(3-(4-methyl-1H-imidazol-1-yl)-5-(4-methylpiperazin-1-yl)phenyl)-3-phenoxybenzamide] |  |  | * (Starred values refer to levels of inhibition of binding by less than 35% at the highest concentration tested, due either to solubility limitations or dynamic range limitations of the assay.)
4 |  | Cc1cn(-c2cc(NS(=O)(=O)c3ccc(C)c(Nc4nccc(-c5ccc(F)cc5)n4)c3)cc(N3CCN(C)CC3)c2)cn1 [Example 22, 3-((4-(4-fluorophenyl)pyrimidin-2-yl)amino)-4-methyl-N-(3-(4-methyl-1H-imidazol-1-yl)-5-(4-methylpiperazin-1-yl)phenyl)benzenesulfonamide] |  |  | * (Starred values refer to levels of inhibition of binding by less than 35% at the highest concentration tested, due either to solubility limitations or dynamic range limitations of the assay.)
